In US8728797B2, “Yeast membrane protein expression system and its application in drug screening” (priority 2001, dated 2014):

Legend:
AD1002 cells = assay: Glucose-dependent rhodamine 6G efflux; type: cell-based, S. cerevisiae; conditions: fluconazole 10 μM in preincubation and all later steps; 10 min after glucose
Description: The efflux of rhodamine 6G at 30° C. was followed by direct measurement of fluorescence in cell supernatants following glucose (2 mM) addition to cell suspensions. […] The indicated concentrations of KN20 were added to AD124567 cells preloaded with rhodamine 6G, the cells were preincubated for 5 minutes at 30° C. and glucose added to commence rhodamine efflux.
A previously described method (Kolaczkowski, M et al. 1996) was adapted to measure rhodamine 6G (Sigma) efflux from whole cells. Yeast cells from exponentially growing cultures in YEPD (OD600 nm=0.5) were collected by centrifugation (3,000×g, 5 min, 20° C.) and washed three times with water. The washed cells were resuspended at a concentration of 0.5×10^6 to 1.0×10^7 cells per ml in HEPES-NaOH (50 mM, pH 7.0) containing 5 mM 2-deoxyglucose and 10 μM rhodamine 6G. In some experiments fluconazole (10 μM) was also added. Cell suspensions were incubated at 30° C. with shaking for 90 min to allow rhodamine accumulation under glucose starvation conditions. The starved cells were washed twice in 50 mM HEPES-NaOH pH 7.0, and portions (400 μl) incubated at 30° C. for 5 min before addition of glucose (final concentration 2 mM) to initiate rhodamine efflux. […] The rhodamine 6G fluorescence of samples was measured using a Cary Eclipse spectrofluorimeter (Varian Inc, Victora Australia). […]

Pdr5p ATPase = molecular target: T1, Pdr5p ATPase (Saccharomyces cerevisiae, UniProt P33302); assay: Oligomycin sensitive ATPase activity of AD124567 plasma membranes; type: biochemical, S. cerevisiae
T1 construct: plasma membranes from the AD124567 yeast strain overexpressing Pdr5p; endogenous in cells; host or cells: S. cerevisiae AD124567 (pdr1-3, PDR5 intact), plasma membrane fraction
T1 sequence (P33302 whole entry): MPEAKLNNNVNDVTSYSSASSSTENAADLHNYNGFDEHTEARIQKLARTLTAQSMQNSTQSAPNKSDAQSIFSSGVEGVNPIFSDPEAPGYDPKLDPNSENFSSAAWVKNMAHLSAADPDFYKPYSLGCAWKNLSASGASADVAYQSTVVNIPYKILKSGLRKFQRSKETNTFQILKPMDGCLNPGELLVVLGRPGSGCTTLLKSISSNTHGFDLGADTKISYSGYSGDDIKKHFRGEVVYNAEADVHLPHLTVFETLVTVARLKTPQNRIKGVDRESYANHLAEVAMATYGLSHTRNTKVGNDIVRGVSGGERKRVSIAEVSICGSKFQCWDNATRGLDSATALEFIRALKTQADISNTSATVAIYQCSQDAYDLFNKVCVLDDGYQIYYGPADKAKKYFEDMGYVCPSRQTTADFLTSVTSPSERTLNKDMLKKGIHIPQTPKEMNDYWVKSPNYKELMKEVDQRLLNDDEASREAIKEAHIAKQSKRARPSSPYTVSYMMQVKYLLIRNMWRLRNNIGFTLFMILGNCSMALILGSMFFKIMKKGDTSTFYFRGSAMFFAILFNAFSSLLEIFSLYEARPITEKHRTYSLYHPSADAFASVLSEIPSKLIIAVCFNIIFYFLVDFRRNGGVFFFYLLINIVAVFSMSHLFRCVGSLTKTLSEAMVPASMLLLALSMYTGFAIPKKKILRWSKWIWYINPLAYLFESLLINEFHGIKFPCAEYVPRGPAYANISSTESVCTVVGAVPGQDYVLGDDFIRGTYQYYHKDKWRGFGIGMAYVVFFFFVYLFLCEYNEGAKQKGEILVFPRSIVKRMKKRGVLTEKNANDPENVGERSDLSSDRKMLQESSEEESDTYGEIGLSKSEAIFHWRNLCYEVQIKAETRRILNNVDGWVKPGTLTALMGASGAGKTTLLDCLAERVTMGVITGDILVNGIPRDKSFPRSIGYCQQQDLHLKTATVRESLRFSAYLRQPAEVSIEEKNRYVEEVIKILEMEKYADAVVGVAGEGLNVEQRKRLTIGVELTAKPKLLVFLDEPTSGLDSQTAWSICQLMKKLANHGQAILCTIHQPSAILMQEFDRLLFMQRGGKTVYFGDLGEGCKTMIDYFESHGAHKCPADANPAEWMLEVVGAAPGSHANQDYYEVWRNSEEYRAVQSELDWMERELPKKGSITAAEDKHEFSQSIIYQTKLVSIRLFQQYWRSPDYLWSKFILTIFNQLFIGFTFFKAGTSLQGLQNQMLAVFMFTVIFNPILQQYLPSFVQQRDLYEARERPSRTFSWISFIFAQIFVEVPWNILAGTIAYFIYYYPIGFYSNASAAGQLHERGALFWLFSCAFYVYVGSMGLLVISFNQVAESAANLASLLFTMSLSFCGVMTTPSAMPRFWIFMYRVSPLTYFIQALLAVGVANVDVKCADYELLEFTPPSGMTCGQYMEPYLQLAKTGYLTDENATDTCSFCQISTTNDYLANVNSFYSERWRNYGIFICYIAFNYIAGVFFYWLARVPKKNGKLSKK
Description: (A) Inhibition profiles of oligomycin-sensitive Pdr5p ATPase activity by the purified peptides D-NH2-asparagine-tryptophan-tryptophan-lysine-valine-arginine-arginine-arginine-CONH2 (KN0) and its singly substituted Mtr-derivative KN20. (B) Inhibition profile with KN20 on the oligomycin-sensitive Cdr1p ATPase activity of plasma membranes from AD1002 minus the oligomycin-sensitive ATPase activity of plasma membranes from the isogenic AD1-8u^− strain.
Yeast were grown in YEPD, pH 5.5 at 30° C. until they reached late-exponential phase of growth (OD600 nm=7), washed twice in ice-cold distilled water, and incubated on ice for 30 min to minimize glucose-stimulated Pma1p activity. Cells were resuspended in homogenising medium (50 mM Tris pH 7.5, 2 mM EDTA and 1 mM phenylmethylsulfonyl fluoride) and disrupted using a Braun Homogeniser. Cell debris and unbroken cells were removed by centrifuging at 2,000×g at 4° C. for 10 min. A crude membrane fraction was isolated from the cell-free supernatant by centrifuging at 30,000×g at 4° C. for 45 min. Plasma membranes were prepared by centrifugation of the supernatant obtained after selective precipitation of mitochondria at pH 5.2 as described previously (Goffeau, A. and Dufour, J. P., 1988). […] Protein was determined using a micro-Bradford (Bio-Rad Laboratories, Hercules, Calif. [Bradford, M. M., 1976]) assay with gamma-globulin as standard. Nucleotide triphosphatase activity was measured by incubating the plasma membrane fractions (10 μg) at 30° C. in a final volume of 120 μl containing 6 mM NTP, 7 mM MgSO4 in 59 mM MES-Tris buffer pH 6.0-8.0. […] Other ATPase inhibitors (20 μM oligomycin, 20 μM aurovertin B or 100 μM vanadate were added to the reaction where indicated. After 30 min the reaction was stopped by adding 130 μl of a solution containing 1% (w/v) SDS, 0.6 M H2SO4, 1.2% (w/v) ammonium molybdate and 1.6% (w/v) ascorbic acid. Inorganic phosphate released from NTPs was measured at 750 nm after 10 min incubation at room temperature.

[1] = system: S. cerevisiae AD-BEN^R (Ben^Rp); assay: Checkerboard chemosensitisation to fluconazole; type: cell-based
Description: (§1) The assays were conducted, as described in Materials and methods for Example 4, in the presence of the indicated concentrations of fluconazole and KN20. D indicates cell death as measured by a failure to recover any colony forming units when samples from microtitre plate wells were cultured on solid YPD medium.
(§2) Checkerboard drug susceptibility assays were used to measure the chemosensitisation of cells to fluconazole by test compounds such as Pdr5p inhibitors. Fluconazole concentration in the CSM-URA medium was varied in one dimension (between 0 and 80 μg/ml) and the concentration of the test compound was varied in the second dimension (between 0 and 40 μM). Cell inocula, growth conditions and the optical determination of growth were identical to standard liquid MIC determinations. The assays were conducted in 6 by 6 well arrays centred in a 96 well microtitre plate using buffered CSM-URA medium at pH 7.0, with fluconazole and/or peptide included in each well at the indicated concentration.

[2] = system: S. cerevisiae AD-ERG11 (Erg11p); assay: Checkerboard chemosensitisation to fluconazole; type: cell-based
Description: as §1, §2

AD1002 = assay: Disk drug susceptibility assay of chemosensitisation to fluconazole; type: cell-based, S. cerevisiae; conditions: 5 μg/ml fluconazole, 12 nanomole peptide on disk
Description: (A) Checkerboard drug susceptibility assay of AD1002. This assay was conducted as described in Materials and methods in the presence of the indicated concentrations of fluconazole and KN20. (B) Disk drug susceptibility assay of AD1002. This assay was conducted, as described in Materials and methods for Example 4, in the absence or presence of 5 μg/ml fluconazole, with (1) KN0 (12 nanomole), (2) KN20 (12 nanomole) or (0) control amounts of DMSO applied to the disks. (C) Checkerboard drug susceptibility assay of ATCC 10261. This assay was conducted, as described in Material and methods for Example 4, in the presence of the indicated concentrations of fluconazole and KN20. D indicates cell death as measured by a failure to recover any colony forming units when samples from microtitre plate wells were cultured on solid YPD medium.
Drug susceptibility was measured using disk assays on CSM-URA plates (containing 1.5% w/v agar). Plates were seeded with yeast cells suspended in top agar (5 ml, 10^5 cells/ml). For the uracil-dependent parental strain, agar was supplemented with 0.02% uridine. Five microliters of drug solution or solvent control were spotted onto sterile Whatman paper disks on the top agar. […]

Molecule: OC(Cn1cncn1)(Cn1cncn1)c1ccc(F)cc1F [fluconazole]
- reduction in the concentration of released rhodamine 6G (AD1002 cells): 32%
- effect on oligomycin sensitive Pdr5p ATPase activity (Pdr5p ATPase; in vitro): does not affect
- Chemosensitising concentration FCZ ([1]; with KN20): 3.75 µg/mL
- Chemosensitising concentration FCZ [2]: 0.25 µg/mL

Molecule: D-octapeptide NH2-Asn-Trp-Trp-Lys-Val-Arg-Arg-Arg-CONH2 with a single 4-methoxy-2,3,6-trimethylbenzenesulphonyl (Mtr) substituent on one tryptophan sidechain; Pdr5p inhibitor [KN20]
- IC50 (Pdr5p ATPase; plasma membranes from AD124567 overexpressing Pdr5p, pH 7.5, read-out: 150 for oligomycin sensitive ATPase activity): ~3000 nM
- Chemosensitising concentration KN20 [1]: 20 µM
- Fold-sensitisation by KN20 (For FCZ MIC) [1]: 16 fold
- Chemosensitising concentration KN20 ([2]; AD-ERG11 (Erg11p)): 20 µM
- Fold-sensitisation by KN20 (For FCZ MIC) ([2]; AD-ERG11 (Erg11p)): 8 fold
- chemosensitisation to fluconazole in disk assay (AD1002): chemosensitises
